Results from patent publication US5885994A, “Tetrahydroquinoxaline dopamine D4 receptor antagonists” (Warner-Lambert Company, priority 1998, dated 1999).
pIC50: −log10 of the molar value.

How the values were obtained:
human D4.2 receptor = biological target: T1, human D4.2 receptor (Homo sapiens, UniProt P21917, DEL265-296); experiment: Inhibition of [3H]spiperone binding to human dopamine D4.2 receptors; conditions: human D4.2, CHO K1 membranes
T1 construct: expressed in transfected cells; host or cells: CHO K1 cells
T1 sequence (P21917 with tags, fused parts or gaps DEL265-296): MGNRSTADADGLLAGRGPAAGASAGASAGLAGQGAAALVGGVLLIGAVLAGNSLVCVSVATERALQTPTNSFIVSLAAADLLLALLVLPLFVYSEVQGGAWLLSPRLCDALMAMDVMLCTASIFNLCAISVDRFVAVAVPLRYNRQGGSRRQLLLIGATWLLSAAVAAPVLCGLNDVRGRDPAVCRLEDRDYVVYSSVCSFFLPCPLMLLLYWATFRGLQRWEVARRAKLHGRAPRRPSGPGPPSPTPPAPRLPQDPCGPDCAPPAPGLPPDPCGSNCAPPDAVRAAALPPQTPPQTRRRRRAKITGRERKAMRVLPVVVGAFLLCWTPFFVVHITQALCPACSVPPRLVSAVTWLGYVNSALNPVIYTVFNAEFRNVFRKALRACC
From the text: (§1) A cell line expressing human dopamine D2 (Long form) receptors was purchased from Oregon Health Sciences University, Portland, Oreg. The D2 receptor cDNA was subcloned into an expression vector, pRc/CMV. The plasmids were transfected by electroporation into CHO K1 cells. A single stable transfectant, resistant to the antibiotic 418, was isolated and selected for use in the binding studies. For D4 binding, CHO K1 cells stably transfected to express the human recombinant dopamine D4.2 receptor subtype, as described by Shih, et al., "The expression and functional characterization of human dopamine D4.2 receptor in CHO K1 cells," Soc. Neurosci., 1995;21(Part 1):621.
(§2) CHO K1 cells expressing either human D2 and D4.2 receptors were grown in 162 cm^2 culture flasks in F12 medium (Gibco Laboratories, Grand Island, N.Y.) supplemented with 10% fetal bovine serum (FBS, Hyclone, Logan, Utah) in an atmosphere of 5% CO2 /95% air at 37° C. Cells were grown until confluent, after which growth medium was removed and replaced with 0.02% ethylene diamine tetracetate (EDTA) in a phosphate-buffered saline solution (Sigma Chemical Co., St. Louis, Mo.) and scraped from the flasks. The cells were centrifuged at about 1000×g for 10 minutes at […] and then resuspended in TEM buffer (25 mM Tris-HCl, pH 7.4, 5 mM EDTA, and 6 mM MgCl2) for D2 or the D4.2 buffer (50 mM Tris-HCl, pH 7.4, 5 mM EDTA, 1.5 mM CaCl2, 5 mM KCl, and 120 mM NaCl) and homogenized. The membranes were pelleted by centrifugation at 20,000×g at […] for 20 minutes. Then the pellets were resuspended in appropriate buffer at 1 mL/flask and stored at -70° C. until used in the receptor binding assay.
(§3) Receptor Binding Assays: D2,D4.2 Dopamine Receptors
(§4) After 60 minutes incubation at 25° C., the incubations were terminated by rapid filtration through Whatmann F/B lass fibre filters (soaked for 1 hour in 0.5% polyethylenimine) on a cell harvester, with three washes of 1 mL ice-cold buffer. Individual filter disks containing the bound ligand were placed in counting vials with 4 mL of scintillation fluid (Ready Gel, Beckman Instrument Inc., Fullerton, Calif.) and then counted in a Beckman LS-6800 liquid scintillation counter at an efficiency of 45%. Nonspecific binding was defined in presence of 1 mM of haloperidol.
(§5) Saturation and competition binding data were analyzed using an iterative nonlinear least-square curve-fitting Ligand program. In competition experiments, apparent Ki values were calculated from IC50 values by method of Cheng and Prusoff, "Relationship between the inhibition constant (Ki) and the concentration of inhibitor which causes 50% inhibition (IC50) of an enzymatic reaction," Biochem. Pharmacol., 1973;22:3099-3108. Experimental compounds were made up as stock solutions in dimethyl sulfoxide (DMSO). […] Each observation was carried out in triplicate. To allow these calculations, Ki values were measured for the interaction of various ligands with the receptor. […]

human D2 receptor = human D2 receptor (Homo sapiens, UniProt P14416); experiment: Inhibition of [3H]spiperone binding to human dopamine D2 receptors; conditions: human D2 (Long form), CHO K1 membranes
From the text: as §1, §2, §3, §4, §5

[1] = test system: amphetamine-stimulated locomotion; experiment: Blockade of amphetamine-stimulated locomotion in rats; type: in vivo, rat
From the text: PROTOCOL FOR THE BLOCKADE OF AMPHETAMINE-STIMULATED LOCOMOTION IN RATS
The blockade of amphetamine-stimulated locomotion procedure is a modification of the Locomotor Activity Protocol in the Omnitech Digiscan Activity Monitors described above. The blockade of amphetamine-stimulated locomotion procedure uses the central nervous system stimulant d-amphetamine to assess antipsychotic activity of dopaminergic agents.
Male Sprague-Dawley rats (Harlan Labs) were used for these studies. Drugs were dissolved in saline or water, and administered either orally (PO) or intraperitoneally (IP) in volumes of 5 mL/kg. Saline control rats and amphetamine (0.5 mg/kg IP) control rats are included with each study (n=4-6 rats per treatment group). For the IP studies, amphetamine is given 20 minutes prior to the drug, after which a 30 minute locomotor activity test is conducted. For the oral study, drug is dosed 30 minutes prior to the test, while amphetamine is given 15 minutes prior to the test, which allows time for oral absorption. Locomotor activity (centimeters travelled per 30 minute test) is measured in 16"×16" open chambers. Amphetamine generally produces a 2- to 3-fold increase in locomotion over saline controls. Drug effects are reported as percent reversal of amphetamine-stimulated locomotion. Significant changes in amphetamine-stimulated locomotion, relative to amphetamine treated controls, were determined by t-test. The dose which would reverse amphetamine-stimulated locomotion by 50% (ED50) and the 95% confidence limits were estimated by regression analysis.

[2] = test system: synthesis rates of rat brain catecholamines; conditions: ip
Method: The effects of compounds on synthesis rates of rat brain catecholamines were estimated by measuring the accumulation of [3-(3,4-dihydroxyphenyl)-L-alanine (DOPA) after administration of the L-aromatic amino acid decarboxylase inhibitor, NSD 1015 (Pugsley, et al., 1995).
Test compounds were administered to rats i.p. 30 minutes before the injection of the L-aromatic amino acid decarboxylase inhibitor, NSD 1015 (100 mg/kg i.p.). Rats were sacrificed by decapitation 30 minutes later. The striatum and mesolimbic regions were rapidly dissected from the brains and stored at -70° C. until assayed. Synthesis rates of rat brain catecholamines were estimated by measuring the accumulation of the DA precursor DOPA after NSD 1015 administration by HPLC with electrochemical detection (Puglsey, et al., 1995). Each value represents the mean of four determinations and is expressed as a percent of the control values.

Sequence of human D2 receptor (P14416 whole entry): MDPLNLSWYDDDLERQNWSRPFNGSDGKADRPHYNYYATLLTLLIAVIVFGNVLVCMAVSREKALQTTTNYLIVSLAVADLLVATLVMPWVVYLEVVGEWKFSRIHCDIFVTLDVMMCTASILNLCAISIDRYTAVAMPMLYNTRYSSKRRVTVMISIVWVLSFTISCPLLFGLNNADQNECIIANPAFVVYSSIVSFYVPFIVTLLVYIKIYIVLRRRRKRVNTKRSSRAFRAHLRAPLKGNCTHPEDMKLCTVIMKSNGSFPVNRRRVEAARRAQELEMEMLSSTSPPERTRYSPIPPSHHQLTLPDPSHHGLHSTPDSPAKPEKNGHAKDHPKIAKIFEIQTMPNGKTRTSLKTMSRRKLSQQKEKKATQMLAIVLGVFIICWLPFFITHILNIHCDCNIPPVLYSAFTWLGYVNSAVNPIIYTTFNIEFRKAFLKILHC

pIC50 (human D4.2 receptor): 8.55
pIC50 (human D2 receptor): 5.53
SMILES: Cc1ccc(N2CCN(Cc3ccc4c(c3)NCCN4)CC2)cc1C [Example 2, 6-[4-(3,4-Dimethylphenyl)piperazin-1-ylmethyl]-1,2,3,4-tetrahydroquinoxaline]
blockade of amphetamine-stimulated locomotion (result in words) ([1]; rat, 1, 3, 10 and 30 mg/kg IP): dose-dependent blockade
ED50 ([1]; rat, PO, read-out: oral blockade of amphetamine-stimulated locomotion ED50): 5.8 mg/kg
DA Synthesis in Rat Hippocampus [2]: +52% of the control values
DA Synthesis in Rat Striatum [2]: +66% of the control values
